pIC50: −log10 of the molar value. Values belong to the compound of their own block, whether it stands above or below them.
Experiments:
PI3Kδ (p110δ/p85α) = biological target: T1, PI3Kδ (p110δ/p85α) (Homo sapiens, UniProt O00329); test: PI3Kδ scintillation proximity assay (assay A); format: biochemical; conditions: 20 μM PIP2, 20 μM ATP, 4 nM PI3Kδ, 210 minutes, room temperature
T1 construct: purchased Millipore (Bedford, Mass.)
Protocol: PI3Kδ Scintillation Proximity Assay
[γ-33P] ATP (10 mCi/mL) was purchased from Perkin-Elmer (Waltham, Mass.). […] PI3Kδ (p110δ/p85α) was purchased from Millipore (Bedford, Mass.). ATP, MgCl2, DTT, EDTA, MOPS and CHAPS were purchased from Sigma-Aldrich (St. Louis, Mo.). Wheat Germ Agglutinin (WGA) YSi SPA Scintillation Beads was purchased from GE healthcare life sciences (Piscataway, N.J.).
The kinase reaction was conducted in polystyrene 384-well matrix white plate from Thermo Fisher Scientific in a final volume of 25 μL. Inhibitors were first diluted serially in DMSO and added to the plate wells before the addition of other reaction components. The final concentration of DMSO in the assay was 0.5%. The PI3K assays were carried out at room temperature in 20 mM MOPS, pH 6.7, 10 mM MgCl2, 5 mM DTT and CHAPS 0.03%. Reactions were initiated by the addition of ATP, the final reaction mixture consisted of 20 μM PIP2, 20 μM ATP, 0.2 μCi [γ-^33P] ATP, 4 nM PI3Kδ. Reactions were incubated for 210 minutes and terminated by the addition of 40 μL SPA beads suspended in quench buffer: 150 mM potassium phosphate pH 8.0, 20% glycerol. 25 mM EDTA, 400 μM ATP. The final concentration of SPA beads is 1.0 mg/mL. After the plate sealing, plates were shaken overnight at room temperature and centrifuged at 1800 rpm for 10 minutes, the radioactivity of the product was determined by scintillation counting on Topcount (Perkin-Elmer). IC50 determination was performed by fitting the curve of percent control activity versus the log of the inhibitor concentration using the GraphPad Prism 3.0 software.

[1] = system: Pfeiffer cell line (diffuse large B cell lymphoma); test: Pfeiffer cell proliferation assay; format: cell-based; conditions: Homo sapiens, [3H]-thymidine incorporation after 3-4 days plus 12 hours
Protocol: Pfeiffer Cell Proliferation Assay
Pfeiffer cell line (diffuse large B cell lymphoma) was purchased from ATCC (Manassas, Va.) and maintained in the culture medium recommended (RPMI and 10% FBS). To measure the anti-proliferation activity of the compounds, the Pfeiffer cells were plated with the culture medium (2×10^3 cells/well/per 200 μl) into 96-well ultra-low binding plates (Corning, Corning, N.Y.), in the presence or absence of a concentration range of test compounds. After 3-4 days, [^3H]-thymidine (1 μCi/well) (PerkinElmer, Boston, Mass.) in PBS was then added to the cell culture for an additional 12 hours before the incorporated radioactivity was separated by filtration with water through GF/B filters (Packard Bioscience, Meridenj, Conn.) and measured by liquid scintillation counting with a TopCount (Packard Bioscience).

T1 sequence (O00329 whole entry): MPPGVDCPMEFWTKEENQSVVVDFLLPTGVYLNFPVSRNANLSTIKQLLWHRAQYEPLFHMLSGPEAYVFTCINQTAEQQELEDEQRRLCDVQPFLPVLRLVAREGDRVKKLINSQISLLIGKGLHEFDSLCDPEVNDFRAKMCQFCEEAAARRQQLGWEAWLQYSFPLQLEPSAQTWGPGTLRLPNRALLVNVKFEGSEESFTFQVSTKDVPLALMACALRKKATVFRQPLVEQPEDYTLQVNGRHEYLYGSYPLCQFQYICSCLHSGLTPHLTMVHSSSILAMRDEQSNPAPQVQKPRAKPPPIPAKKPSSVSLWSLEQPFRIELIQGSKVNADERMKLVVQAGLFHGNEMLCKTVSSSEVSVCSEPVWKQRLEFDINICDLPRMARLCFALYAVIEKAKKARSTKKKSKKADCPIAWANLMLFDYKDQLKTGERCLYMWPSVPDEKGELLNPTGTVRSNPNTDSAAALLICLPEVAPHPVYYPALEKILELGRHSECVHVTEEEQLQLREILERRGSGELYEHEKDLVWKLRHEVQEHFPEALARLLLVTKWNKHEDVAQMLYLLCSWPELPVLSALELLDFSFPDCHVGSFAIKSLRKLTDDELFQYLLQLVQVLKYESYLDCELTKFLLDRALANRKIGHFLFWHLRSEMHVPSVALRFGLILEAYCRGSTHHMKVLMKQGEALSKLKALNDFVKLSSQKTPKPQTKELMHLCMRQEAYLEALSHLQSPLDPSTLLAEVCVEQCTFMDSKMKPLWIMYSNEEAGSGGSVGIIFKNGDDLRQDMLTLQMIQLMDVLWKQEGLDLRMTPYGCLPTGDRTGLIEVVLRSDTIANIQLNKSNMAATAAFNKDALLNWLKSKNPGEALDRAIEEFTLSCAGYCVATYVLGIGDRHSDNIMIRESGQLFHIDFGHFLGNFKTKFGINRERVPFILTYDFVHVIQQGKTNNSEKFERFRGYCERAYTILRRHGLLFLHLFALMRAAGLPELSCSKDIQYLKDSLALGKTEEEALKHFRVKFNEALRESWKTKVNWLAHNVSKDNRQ
T1 sequence (P27986 whole entry partner): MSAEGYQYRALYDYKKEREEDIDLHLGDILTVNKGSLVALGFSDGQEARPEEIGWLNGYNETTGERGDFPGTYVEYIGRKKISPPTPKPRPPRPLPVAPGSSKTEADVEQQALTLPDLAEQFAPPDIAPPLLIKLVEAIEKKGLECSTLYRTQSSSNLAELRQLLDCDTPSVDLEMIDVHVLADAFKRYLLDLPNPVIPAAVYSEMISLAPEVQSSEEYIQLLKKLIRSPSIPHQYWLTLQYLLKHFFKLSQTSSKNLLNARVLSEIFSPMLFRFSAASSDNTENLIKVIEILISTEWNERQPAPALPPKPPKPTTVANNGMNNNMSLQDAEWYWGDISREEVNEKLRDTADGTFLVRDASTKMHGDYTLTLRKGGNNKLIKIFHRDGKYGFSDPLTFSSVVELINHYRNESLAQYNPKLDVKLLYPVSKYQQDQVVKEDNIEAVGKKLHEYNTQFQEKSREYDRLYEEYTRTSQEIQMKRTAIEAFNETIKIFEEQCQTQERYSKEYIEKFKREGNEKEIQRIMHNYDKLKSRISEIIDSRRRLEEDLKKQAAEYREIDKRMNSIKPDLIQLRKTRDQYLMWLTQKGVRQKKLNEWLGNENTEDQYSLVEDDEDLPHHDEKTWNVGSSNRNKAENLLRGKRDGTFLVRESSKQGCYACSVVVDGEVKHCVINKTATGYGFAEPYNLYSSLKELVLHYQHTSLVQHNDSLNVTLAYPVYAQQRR

SMILES: CC(Nc1ncnc2[nH]cnc12)c1cc(Cl)c2cncn2c1N1CCN(C(=O)OC(C)(C)C)CC1 (stereo not drawn) [Example 6, tert-Butyl 4-{8-chloro-6-[1-(9H-purin-6-ylamino)ethyl]imidazo[1,5-a]pyridin-5-yl}piperazine-1-carboxylate]
pIC50 (PI3Kδ (p110δ/p85α)): 6.70 to 7.30
pIC50 [1]: < 5.52

SMILES: CC(Nc1ncnc2[nH]cnc12)c1cc(Cl)c2cncn2c1-c1cccc(F)c1 (single isomer, unassigned) [1, isomer 1]
pIC50 (PI3Kδ (p110δ/p85α)): > 7.30
pIC50 [1]: ≥ 7.00

SMILES: CC(Nc1ncnc2[nH]cnc12)c1cc(Cl)c2cncn2c1N1CCN(CCCC(F)(F)F)CC1 (stereo not drawn) [Example 14, N-(1-{8-Chloro-5-[4-(4,4,4-trifluorobutyl)piperazin-1-yl]imidazo[1,5-a]pyridin-6-yl}ethyl)-9H-purin-6-amine]
pIC50 (PI3Kδ (p110δ/p85α)): 6.70 to 7.30
pIC50 [1]: ≥ 7.00

SMILES: CO[C@H]1CCN(c2c(C(C)Nc3ncnc4[nH]cnc34)cc(Cl)c3cncn23)C1 (stereo partly drawn) [Example 22, N-(1-{8-Chloro-5-[(3S)-3-methoxypyrrolidin-1-yl]imidazo[1,5-a]pyridin-6-yl}ethyl)-9H-purin-6-amine]
pIC50 (PI3Kδ (p110δ/p85α)): > 7.30
pIC50 [1]: ≥ 7.00

SMILES: CC(Nc1ncnc2[nH]cnc12)c1cc(Cl)c2cncn2c1N1CCN(CC2CCCO2)CC1 (stereo not drawn) [Example 16, N-(1-{8-Chloro-5-[4-(tetrahydrofuran-2-ylmethyl)piperazin-1-yl]imidazo[1,5-a]pyridin-6-yl}ethyl)-9H-purin-6-amine]
pIC50 (PI3Kδ (p110δ/p85α)): 6.12 to 6.70
pIC50 [1]: 6.30 to 7.00

The next lines start with the values.

pIC50 (PI3Kδ (p110δ/p85α)): > 7.30
pIC50 [1]: ≥ 7.00
SMILES: COc1cccc(-c2c(C(C)Nc3ncnc4[nH]cnc34)cc(Cl)c3ccnn23)c1 (stereo not drawn) [Example 28, N-{1-[4-chloro-7-(3-methoxyphenyl)pyrazolo[1,5-a]pyridin-6-yl]ethyl}-9H-purin-6-amine]

pIC50 (PI3Kδ (p110δ/p85α)): > 7.30
pIC50 [1]: < 5.52
SMILES: CC(=O)N1CCN(c2c(C(C)Nc3ncnc4[nH]cnc34)cc(C)c3cncn23)CC1 (stereo not drawn) [Example 32, N-{1-[5-(4-Acetylpiperazin-1-yl)-8-methylimidazo[1,5-a]pyridin-6-yl]ethyl}-9H-purin-6-amine bis(trifluoroacetate)]

pIC50 (PI3Kδ (p110δ/p85α)): > 7.30
pIC50 [1]: ≥ 7.00
SMILES: CC(Nc1ncnc2[nH]cnc12)c1cc(Cl)c2ccnn2c1-c1cccc(F)c1 (stereo not drawn) [Example 26, N-{1-[4-chloro-7-(3-fluorophenyl)pyrazolo[1,5-a]pyridin-6-yl]ethyl}-9H-purin-6-amine]

pIC50 (PI3Kδ (p110δ/p85α)): 6.12 to 6.70
pIC50 [1]: < 5.52
SMILES: CC(=O)N1CCN(c2c(C(C)Nc3ncnc4[nH]cnc34)cc(C#N)c3cncn23)CC1 (stereo not drawn) [Example 31, 5-(4-Acetylpiperazin-1-yl)-6-[1-(9H-purin-6-ylamino)ethyl]imidazo[1,5-a]pyridine-8-carbonitrile bis(trifluoroacetate)]

Reference: patent US9193721B2, “Fused derivatives as PI3Kδ inhibitors” (Incyte Holdings Corporation, priority 2010, dated 2015)
